Results reported in patent publication US9073876B2, “Flap modulators” (JANSSEN PHARMACEUTICA NV, priority 2013, dated 2015).
pIC50, pKi: −log10 of the molar value.

Key:
[1] = test system: leukotriene pathway in human whole blood (LTB4 levels); experiment: Human whole blood assay (LTB4); type: cell-based; conditions: human whole blood diluted 1:1 in RPMI, stimulated with calcium ionophore A23187; single replicate
Procedure: The ability of the compounds of the present invention to treat a FLAP-mediated disease and/or disorder, or associated symptoms or complications thereof, was determined using the following procedures. Binding assay data represent the average value obtained from two different assay plates, with samples run in duplicate on each plate. Human whole blood assay data represent a single replicate on an assay plate using whole blood from at least one healthy donor.
An in vitro cellular assay was performed using human whole blood collected in heparin-containing tubes, which was used to test the ability of compounds to modulate the leukotriene pathway in human whole blood. The blood was diluted 1:1 in RPMI medium, pre-incubated for 15 min at 37° Celsius with test compounds at various concentrations, and then stimulated with calcium ionophore, A23187 (7 μg/mL), for 30 min at 37° Celsius. The samples were then centrifuged and plasma was removed. The plasma was diluted in assay buffer and LTB4 levels were measured using a commercial kit (Enzo Life Sciences). The concentration of each compound that was required for half-maximal inhibition (modulation) of recombinant enzyme activity (IC50) was calculated by a 4-parameter equation using the program GraphPad Prism (GraphPad software).

human FLAP = human FLAP (Homo sapiens (Human), UniProt P20292); experiment: FLAP binding assay (HTRF); conditions: human FLAP-containing membranes, HTRF format; average of two assay plates, duplicates; read-out: FLAP Binding wild type HTRF Ki
human FLAP, sequence (P20292 whole entry): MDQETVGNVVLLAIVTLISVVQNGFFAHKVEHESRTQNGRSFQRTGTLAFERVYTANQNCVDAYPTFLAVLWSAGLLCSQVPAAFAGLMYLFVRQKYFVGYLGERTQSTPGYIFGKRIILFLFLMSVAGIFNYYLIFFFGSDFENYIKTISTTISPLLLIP
How it was run: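 Binding values are averages from two separate assay plates, with each sample run in duplicate per plate. Data are expressed as an HTRF ratio.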

Compound | pIC50 [1] | pKi (human FLAP)
Nc1cnc(NCC(O)COc2c(C3CCC3)ccc(-c3cnc(N)cn3)c2F)nc1 (racemic) [Example 58, racemic 1-(3-(5-Aminopyrazin-2-yl)-6-cyclobutyl-2-fluorophenoxy)-3-((5-aminopyrimidin-2-yl)amino)propan-2-ol] | 6.43 | 7.52
Nc1cnc(-c2ccc(C3CCC3)c(OCC(O)CNc3cc(N)ncn3)c2F)cn1 (racemic) [Example 59, racemic 1-(3-(5-Aminopyrazin-2-yl)-6-cyclobutyl-2-fluorophenoxy)-3-((6-aminopyrimidin-4-yl)amino)propan-2-ol] | 5.81 | 6.49
Nc1cnc(-c2ccc(C3CCC3)c(OCC(O)Cn3ccnc3)c2F)cn1 (racemic) [Example 61, racemic 1-(3-(5-Aminopyrazin-2-yl)-6-cyclobutyl-2-fluorophenoxy)-3-(1H-imidazol-1-yl)propan-2-ol] | 6.16 | 6.58
Nc1cnc(-c2ccc(C3CCC3)c(OCC(O)Cn3cncn3)c2F)cn1 (racemic) [Example 62, racemic 1-(3-(5-Aminopyrazin-2-yl)-6-cyclobutyl-2-fluorophenoxy)-3-(1H-1,2,4-triazol-1-yl)propan-2-ol] | 6.08 | 6.50
Nc1cnc(-c2ccc(C3CCC3)c(OCC(O)Cn3ccnn3)c2F)cn1 (racemic) [Example 63, racemic 1-(3-(5-Aminopyrazin-2-yl)-6-cyclobutyl-2-fluorophenoxy)-3-(1H-1,2,3-triazol-1-yl)propan-2-ol] | 6.67 | 6.92
Nc1cnc(-c2ccc(C3CCC3)c(OCC(O)Cn3nccn3)c2F)cn1 (racemic) [Example 64, racemic 1-(3-(5-Aminopyrazin-2-yl)-6-cyclobutyl-2-fluorophenoxy)-3-(2H-1,2,3-triazol-2-yl)propan-2-ol] | 6.56 | 7.07
Nc1cnc(-c2ccc(C3CCC3)c(OCC(O)Cn3nncc3N)c2F)cn1 (racemic) [Example 66, racemic 1-(5-Amino-1H-1,2,3-triazol-1-yl)-3-(3-(5-aminopyrazin-2-yl)-6-cyclobutyl-2-fluorophenoxy)propan-2-ol] | 6.12 | 6.37
Nc1cnc(-c2ccc(C3CCC3)c(OCC(O)CN3CCOCC3)c2F)cn1 (racemic) [Example 255, 1-(3-(5-aminopyrazin-2-yl)-6-cyclobutyl-2-fluorophenoxy)-3-morpholinopropan-2-ol] | 5.94 | 5.94
Nc1cnc(-c2ccc(C3CCC3)c(OCC(O)CN3CCS(=O)(=O)CC3)c2F)cn1 (racemic) [Example 256, 4-(3-(3-(5-Aminopyrazin-2-yl)-6-cyclobutyl-2-fluorophenoxy)-2-hydroxypropyl)thiomorpholine 1,1-dioxide] | 6.14 | 6.36
Nc1cnc(-c2ccc(C3CCC3)c(OCC(O)Cn3c(=O)[nH]c4ccccc43)c2F)cn1 (racemic) [Example 311, racemic 1-{3-[3-(5-Aminopyrazin-2-yl)-6-cyclobutyl-2-fluorophenoxy]-2-hydroxypropyl}-1,3-dihydro-2H-benzimidazol-2-one] | 6.96 | 8.09
COc1c(C2CCC2)ccc(-c2cnc(N)cn2)c1F [A, 5-(4-Cyclobutyl-2-fluoro-3-methoxyphenyl)pyrazin-2-amine] | 6.27 | 7.19
Nc1cnc(-c2ccc(C3CCC3)c(O)c2F)cn1 [B, 3-(5-Aminopyrazin-2-yl)-6-cyclobutyl-2-fluorophenol] | 6.02 | 6.45
Nc1cnc(-c2ccc(C3CCC3)c(OCc3ccc(C(F)(F)F)cc3)c2F)cn1 [Example 1, 5-(4-Cyclobutyl-2-fluoro-3-{[4-(trifluoromethyl)benzyl]oxy}phenyl)-pyrazin-2-amine] | 6.23 | 6.54
Nc1cnc(-c2ccc(C3CCC3)c(OCc3cccc(C(F)(F)F)c3)c2F)cn1 [Example 2, 5-(4-Cyclobutyl-2-fluoro-3-{[3-(trifluoromethyl)benzyl]oxy}phenyl)-pyrazin-2-amine] | 6.28 | 6.80
Nc1cnc(-c2ccc(C3CCC3)c(OCc3ccccc3C(F)(F)F)c2F)cn1 [Example 3, 5-(4-Cyclobutyl-2-fluoro-3-{[2-(trifluoromethyl)benzyl]oxy}phenyl)-pyrazin-2-amine] | 6.57 | 6.60
Nc1cnc(-c2ccc(C3CCC3)c(OCc3cccc(C(=O)O)c3)c2F)cn1 [Example 4, 3-{[3-(5-Aminopyrazin-2-yl)-6-cyclobutyl-2-fluorophenoxy]methyl}benzoic acid] | 6.53 | 8.40
Nc1cnc(-c2ccc(C3CCC3)c(OCc3ccc(C(=O)O)cc3)c2F)cn1 [Example 5, 4-{[3-(5-Aminopyrazin-2-yl)-6-cyclobutyl-2-fluorophenoxy]methyl}benzoic acid] | 6.58 | 7.96

Compound | pIC50 [1] | pKi (human FLAP)
CS(=O)(=O)c1ccc(COc2c(C3CCC3)ccc(-c3cnc(N)cn3)c2F)cc1 [Example 7, 5-(4-Cyclobutyl-2-fluoro-3-{[4-(methylsulfonyl)benzyl]oxy}phenyl)-pyrazin-2-amine] | 5.85 | 8.15
Nc1cnc(-c2ccc(C3CCC3)c(OCc3cccnc3)c2F)cn1 [Example 13, 5-[4-Cyclobutyl-2-fluoro-3-(pyridin-3-ylmethoxy)phenyl]pyrazin-2-amine] | 5.89 | 6.60
Nc1cnc(-c2ccc(C3CCC3)c(OCc3ccncc3)c2F)cn1 [Example 14, 5-[4-Cyclobutyl-2-fluoro-3-(pyridin-4-ylmethoxy)phenyl]pyrazin-2-amine] | 5.64 | 6.91
N#Cc1ccc(COc2c(C3CCC3)ccc(-c3cnc(N)cn3)c2F)cc1 [Example 15, 4-{[3-(5-Aminopyrazin-2-yl)-6-cyclobutyl-2-fluorophenoxy]methyl}benzonitrile] | 5.91 | 6.71
N#Cc1cccc(COc2c(C3CCC3)ccc(-c3cnc(N)cn3)c2F)c1 [Example 16, 3-{[3-(5-Aminopyrazin-2-yl)-6-cyclobutyl-2-fluorophenoxy]methyl}benzonitrile] | 6.33 | 7.01
NC(=O)c1cccc(COc2c(C3CCC3)ccc(-c3cnc(N)cn3)c2F)c1 [Example 17, 3-{[3-(5-Aminopyrazin-2-yl)-6-cyclobutyl-2-fluorophenoxy]methyl}benzamide] | 6.56 | 7.80
N#Cc1ccccc1COc1c(C2CCC2)ccc(-c2cnc(N)cn2)c1F [Example 18, 2-{[3-(5-Aminopyrazin-2-yl)-6-cyclobutyl-2-fluorophenoxy]methyl}benzonitrile] | 5.93 | 6.92
NC(=O)c1ccccc1COc1c(C2CCC2)ccc(-c2cnc(N)cn2)c1F [Example 19, 2-{[3-(5-Aminopyrazin-2-yl)-6-cyclobutyl-2-fluorophenoxy]methyl}benzamide] | 6.09 | 7.00
Nc1cnc(-c2ccc(C3CCC3)c(OCc3ccc(-c4nnn[nH]4)cc3)c2F)cn1 [Example 20, 5-(4-Cyclobutyl-2-fluoro-3-{[4-(1H-tetrazol-5-yl)benzyl]oxy}phenyl)pyrazin-2-amine] | < 5.00 | 8.30
Nc1cnc(-c2ccc(C3CCC3)c(OCc3cccc(-c4nnn[nH]4)c3)c2F)cn1 [Example 21, 5-(4-Cyclobutyl-2-fluoro-3-{[3-(1H-tetrazol-5-yl)benzyl]oxy}phenyl)pyrazin-2-amine] | 5.38 | 8.10
Nc1cnc(-c2ccc(C3CCC3)c(OCc3ccccc3-c3nnn[nH]3)c2F)cn1 [Example 22, 5-(4-Cyclobutyl-2-fluoro-3-{[2-(1H-tetrazol-5-yl)benzyl]oxy}phenyl)pyrazin-2-amine] | < 5.00 | 8.22
Nc1cnc(-c2ccc(C3CCC3)c(OCc3ccc(CC(=O)O)cc3)c2F)cn1 [Example 23, (4-{[3-(5-Aminopyrazin-2-yl)-6-cyclobutyl-2-fluorophenoxy]methyl}phenyl)acetic acid] | 6.44 | 8.70
Nc1cnc(-c2ccc(C3CCC3)c(OCc3ccccn3)c2F)cn1 [Example 24, 5-[4-Cyclobutyl-2-fluoro-3-(pyridin-2-ylmethoxy)phenyl]pyrazin-2-amine] | < 5.00 | 7.00
CN(C)S(=O)(=O)c1ccc(COc2c(C3CCC3)ccc(-c3cnc(N)cn3)c2F)cc1 [Example 25, 4-{[3-(5-Aminopyrazin-2-yl)-6-cyclobutyl-2-fluorophenoxy]methyl}-N,N-dimethylbenzenesulfonamide] | 6.24 | 7.92
Nc1cnc(-c2ccc(C3CCC3)c(OCc3ccc(S(N)(=O)=O)cc3)c2F)cn1 [Example 26, 4-{[3-(5-Aminopyrazin-2-yl)-6-cyclobutyl-2-fluoro-phenoxy]methyl}benzenesulfonamide] | < 5.00 | 7.70
CNS(=O)(=O)c1ccc(COc2c(C3CCC3)ccc(-c3cnc(N)cn3)c2F)cc1 [Example 27, 4-{[3-(5-Aminopyrazin-2-yl)-6-cyclobutyl-2-fluorophenoxy]methyl}-N-methylbenzenesulfonamide] | 6.09 | 8.22
Nc1cnc(-c2ccc(C3CCC3)c(OCc3cccc(F)c3)c2F)cn1 [Example 29, 5-{4-Cyclobutyl-2-fluoro-3-[(3-fluorobenzyl)oxy]phenyl}pyrazin-2-amine] | 5.97 | 6.65
